Assay results as given in patent publication US20220023381A1, “VDAC INHIBITORS FOR TREATING AUTOIMMUNE DISEASES” (NATIONAL INSTITUTE FOR BIOTECHNOLOGY IN THE NEGEV LTD., priority 2018, published 2022).

What was measured:
[1] = test system: EndoG−/− MEFs; assay: ISG expression in EndoG−/− MEFs (real-time PCR / western blot); assay type: cell-based, mouse; settings: VBIT-4 (10 μM), real-time PCR
Method: All MEFs were grown in complete Dulbecco's modified Eagle's medium (DMEM, Corning) supplemented with 10% fetal bovine serum (FBS, Sigma-Aldrich) and 1% penicillin and streptomycin (antibiotics, Gibco) at 37° C. with 5% CO2.
Total RNA was extracted using RNeasy Plus Mini Kit (Qiagen) according to the manufacturer's instructions. The first-strand cDNA was synthesized from 2 μg purified mRNA using Accupower RT PreMix (BioNeer). The reaction mixtures were incubated at 42° C. for 60 min and 94° C. for 5 min. Real-time RT-PCR was performed using the LightCycler 96 system (Roche Life Science) with SYBR Green master mix (Roche). The primers used were as follow (5′-3′): EndoG forward (SEQ ID NO:36), and reverse (SEQ ID NO:37); Cxcl10 forward (SEQ ID NO:38), and reverse (SEQ ID NO:39); GAPDH forward (SEQ ID NO:40), and reverse (SEQ ID NO:41); Ifi44 forward (SEQ ID NO:42), and reverse (SEQ ID NO:43); Ifit1 forward (SEQ ID NO:44), and reverse (SEQ ID NO:45); Ifit3 forward (SEQ ID NO:46), and reverse (SEQ ID NO:47); IFNα4 forward (SEQ ID NO:48), and reverse (SEQ ID NO:49); IFNβ forward (SEQ ID NO:50), and reverse (SEQ ID NO:51); Iigp1 forward (SEQ ID NO:52), and reverse (SEQ ID NO:53); ISG15 forward (SEQ ID NO:54), and reverse (SEQ ID NO:55); Oasl2 forward (SEQ ID NO:56), and reverse (SEQ ID NO:57); Rsad2 forward (SEQ ID NO:58), and reverse (SEQ ID NO:59); USP18 forward (SEQ ID NO:60), and reverse (SEQ ID NO:61); VDAC1 forward (SEQ ID NO:62), and reverse (SEQ ID NO:63). GAPDH was used as an internal standard of mRNA expression, and the ratio of the target gene expression to GAPDH expression was calculated using LightCycler 96 Instrument software (Roche). The quality of real-time RT-PCR results was evaluated based on the melting temperature (Tm) of a DNA fragment and melting curve analysis.

[2] = test system: low-density granulocytes (LDG) and normal-density granulocytes (NDG); assay: NET formation (NETosis) in granulocytes; assay type: cell-based, human
Method: Normal-density granulocytes (NDGs) were isolated from heparinized venous blood using a Ficoll-Paque gradient (GE Healthcare) with dextran (Sigma-Aldrich) sedimentation, followed by red blood cell lysis using hypotonic NaCl. From the PBMC layer, low-density granulocytes (LDGs) were isolated using a negative selection method. The cells were resuspended in RPMI 1640 medium for further characterization. NETs were induced in NDGs by incubating cells with calcium ionophore A23187 (25 μM) (Thermo Fisher) in RPMI 1640 medium for 2 h, and NETs were quantified using SYTOX fluorescent dye at 485/520 nm to quantify extracellular DNA. The fluorescence of PicoGreen (Life Technologies) at t=0 min was measured at 485/520 nm […] to quantify the total DNA. The fluorescence was quantified using a microplate reader (Synergy HTX; BIOTEK). NETs were also quantified by fluorescence microscopy. Briefly, the cells were attached to coverslip chambers, stimulated for 90 min at 37° C. with calcium ionophore, fixed with 4% paraformaldehyde overnight at 4° C., and permeabilized with 0.2% Triton X-100 for 10 min, followed by 0.5% gelatin for 20 min. The cells were stained with antibodies against human neutrophil elastase (ab21595, Abcam) for 2 h at room temperature, washed in PBS, and stained with Hoechst 33342 (Life Technologies) and Alexa Fluor 488 secondary antibody (A31570, Life Technologies) for 2 h at room temperature. After mounting, the cells were visualized with a LSM780 confocal microscope.

[3] = test system: human PBMCs; assay: A23187-induced mitochondrial ROS (MitoSOX); assay type: cell-based; settings: VBIT-4 (5 μM), A23187 (25 μM), 1 h
Method: Cellular cGAMP levels were measured by LC/MS (Agilent Technologies) using 5% perchloric acid extracts of WT and EndoG^−/− MEFs. Intracellular ROS production in MEFs was measured using the oxidative stress indicator CM-H2DCFDA (Invitrogen) with flow cytometry (FACS). Mitochondrial ROS in MEFs was evaluated using the mitochondrial superoxide indicator MitoSOX (Invitrogen) with a confocal microscope (LSM880, Zeiss, and the fluorescence intensity was measured using Zen software (Zeiss). To quantify mitochondrial ROS in human PBMCs, the cells were obtained from heparinized blood using a Ficoll-Paque gradient. The cells were washed with PBS, resuspended in RPMI 1640 medium, and transferred to 96-well plates. Subsequently, the cells were stimulated with calcium ionophore A23187 (25 μM), VBIT-4 (5 μM), and MitoSOX (2 μM) (Life Technologies). After 1 h at 37° C., the fluorescence was measured at 510/595 nm using a microplate reader (Synergy HTX; BIOTEK). Cells without dye were used as the blank control.

[4] = test system: PTP; assay: Mitochondrial swelling assay (PTP opening); settings: purified mitochondria, Ca2+-induced swelling
Method: The PTP opening was analyzed following mitochondria swelling. Briefly, freshly isolated mitochondria (0.5 mg/ml) were incubated for 2 min at 24° C. with the indicated concentrations of VBIT-4 for Ca^2+-induced mitochondrial swelling assay. Swelling was initiated by the addition of Ca^2+ (0.1 mM) to the sample cuvette. Absorbance changes at 520 nm were monitored every 16 s for 15 min. Cyclosporine A 10 μM) was used as a positive control. […] Ca^2+ accumulation by freshly isolated rat liver mitochondria (0.5 mg/ml) was assayed with the indicated concentrations of VBIT-4 in the presence of […] CaCl2) (containing [^45Ca^2+]), 220 mM mannitol, 70 mM sucrose, 5 mM succinate, 0.15 mM Pi and 15 mM Tris/HCl, pH 7.2. Ca^2+ uptake was terminated by rapid Millipore filtration (0.45 μm).

[5] = target: T1, VDAC1 (Rattus norvegicus, UniProt Q9Z2L0); assay: mtDNA efflux from liposomes reconstituted with VDAC1; assay type: biochemical; settings: VDAC1-containing mtDNA-loaded liposomes
T1 construct: from tissue; host or cells: rat liver mitochondria (inferred)

[6] = target: T1, VDAC1; assay: Micro-scale thermophoresis (MST) interaction with VDAC1; assay type: binding; settings: without prior exposure to high voltage

T1 sequence (Q9Z2L0 whole entry): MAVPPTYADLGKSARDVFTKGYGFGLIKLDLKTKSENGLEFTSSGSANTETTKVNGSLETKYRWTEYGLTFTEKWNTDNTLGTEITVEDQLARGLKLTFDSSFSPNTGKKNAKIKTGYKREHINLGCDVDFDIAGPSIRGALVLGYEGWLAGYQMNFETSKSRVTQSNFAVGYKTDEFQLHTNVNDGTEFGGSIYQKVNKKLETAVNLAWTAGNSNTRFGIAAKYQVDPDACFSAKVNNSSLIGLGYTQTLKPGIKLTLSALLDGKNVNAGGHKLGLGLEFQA

`O=C(CC(CO)N1CCN(c2ccc(OC(F)(F)F)cc2)CC1)Nc1ccc(Cl)cc1` (stereo not shown) [VBIT-4, N-(4-chlorophenyl)-4-hydroxy-3-(4-(4-(trifluoromethoxy)phenyl)-piperazin-1-yl)butanamide] was tested, and the ISG expression [1] was “decreased”, the NETosis ([2]; LDG from lupus patients, spontaneous NET formation, VBIT-4 (5 μM), microscopy) was “strongly inhibited” and the NETosis ([2]; NDG from healthy controls, SYTOX-PicoGreen plate assay) was “strongly inhibited”. The NETosis ([2]; NDG from lupus patients, A23187-stimulated, microscopy) was “strongly inhibited”, the NETosis ([2]; NDG from lupus patients, SYTOX-PicoGreen plate assay) was “strongly inhibited” and the “A23187-induced mitochondrial ROS” value ([3]; healthy controls) was “decreased”. The “A23187-induced mitochondrial ROS” value ([3]; lupus patients) was “decreased”, the PTP opening [4] was “did not prevent” and the “mtDNA release from liposomes” value [5] was “decreased”. For the same compound, the “interaction with VDAC1 measured by MST” value [6] was “did show interaction”.
